According to ChEMBL document CHEMBL1130927, “Novel imidazole derivatives with subtype-selective antimuscarinic activity (2)” (Bioorg Med Chem Lett, 1998):

Assays:
[1] = molecular target: Muscarinic acetylcholine receptor M3 (Cavia porcellus) (UniProt Q8VH26); assay: Antimuscarinic activity against M3 receptor of guinea pig ileum; format: tissue-based
[2] = system: Muscarinic acetylcholine receptors; M2 & M3; assay: Selectivity ratio was calculated between Kb values at M2 and M3 muscarinic receptors; format: protein assay; details: Cavia porcellus
[3] = molecular target: Muscarinic acetylcholine receptor M2 (Cavia porcellus); assay: Antimuscarinic activity against M2 receptor of guinea pig atrium; details: Cardiac atrium

Muscarinic acetylcholine receptor M3 (Cavia porcellus), sequence (Q8VH26 1-587): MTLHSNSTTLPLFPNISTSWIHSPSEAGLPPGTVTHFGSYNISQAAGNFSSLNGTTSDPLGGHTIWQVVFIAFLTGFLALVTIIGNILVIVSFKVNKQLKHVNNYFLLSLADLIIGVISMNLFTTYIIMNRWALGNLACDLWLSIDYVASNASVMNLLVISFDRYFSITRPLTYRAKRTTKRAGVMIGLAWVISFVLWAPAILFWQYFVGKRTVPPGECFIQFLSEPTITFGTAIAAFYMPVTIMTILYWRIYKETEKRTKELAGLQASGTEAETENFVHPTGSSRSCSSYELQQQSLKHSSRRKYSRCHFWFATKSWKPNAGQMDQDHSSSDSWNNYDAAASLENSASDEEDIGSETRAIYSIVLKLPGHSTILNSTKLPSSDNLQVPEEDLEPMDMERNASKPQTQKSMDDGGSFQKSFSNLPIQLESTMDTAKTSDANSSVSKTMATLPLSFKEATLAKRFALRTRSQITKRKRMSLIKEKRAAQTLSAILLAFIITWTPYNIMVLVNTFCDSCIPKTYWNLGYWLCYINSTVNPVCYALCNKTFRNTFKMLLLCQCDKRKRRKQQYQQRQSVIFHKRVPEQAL

Kb [1]	Ratio [2]	Kb [3]	SMILES
258 nM	1.85	478 nM	Cc1nccn1CCC(C(=O)N(C)C)(c1ccccc1)c1ccccc1
2.89 nM	15.6	45.1 nM	Cc1nccn1CC(C)C(C(N)=O)(c1ccccc1)c1ccccc1 (stereo unspecified)
> 1000 nM	–	–	COC(=O)C(CCn1ccnc1C)(c1ccccc1)c1ccccc1
394 nM	–	–	Cc1nccn1CCC(C(N)=O)(c1ccccc1)C(C)C (stereo unspecified)
5150 nM	1.14	5870 nM	CNC(=O)C(CCn1ccnc1C)(c1ccccc1)c1ccccc1
2.86 nM	17.5	50.1 nM	Cc1nccn1CCC(C(N)=O)(c1ccccc1)c1ccccn1 (stereo unspecified)
16.7 nM	3	50.1 nM	Cc1nccn1CCC(O)(c1ccccc1)c1ccccc1
–	13	–	Cc1nccn1CCC(C(N)=O)(c1ccccc1)c1ccccc1
19 nM	31.7	603 nM	Cc1nccn1CCC(C(N)=O)(c1ccccc1)C1CCCCC1 (stereo unspecified)
9.85 nM	16.3	161 nM	Cc1nccn1CCC(C(N)=O)(c1ccc(F)cc1)c1ccc(F)cc1
43.7 nM	3.39	148 nM	Cc1nccn1CCCCC(C(N)=O)(c1ccccc1)c1ccccc1
25.4 nM	3.3	83.8 nM	Cc1nccn1CCC(CO)(c1ccccc1)c1ccccc1
71.3 nM	9.96	710 nM	Cc1nccn1CCCCCC(C(N)=O)(c1ccccc1)c1ccccc1
6.95 nM	11.9	82.7 nM	Cc1nccn1CCC(C(=O)O)(c1ccccc1)c1ccccc1
1830 nM	–	–	Cc1nccn1CCC(C)(C(N)=O)c1ccccc1 (stereo unspecified)
> 300 nM	–	–	Cc1nccn1CCC(C(N)=O)C1c2ccccc2Oc2ccccc21 (stereo unspecified)
24.6 nM	30.3	743 nM	Cc1ccc(C(CCn2ccnc2C)(C(N)=O)c2ccccc2)cc1 (stereo unspecified)
16.9 nM	10.3	174 nM	Cc1nccn1C(C)CC(C(N)=O)(c1ccccc1)c1ccccc1 (stereo unspecified)
10.4 nM	1.49	15.5 nM	Cc1nccn1CCC(C#N)(c1ccccc1)c1ccccc1
2140 nM	–	–	Cc1nccn1CCC(C(N)=O)C1c2ccccc2CCc2ccccc21 (stereo unspecified)
1.14 nM	17.6	20.1 nM	Cc1nccn1CCCC(C(N)=O)(c1ccccc1)c1ccccc1
